Tests used:
Experiment in all cases: relative viability (nuclei count vs DMSO), 5 days (fraction); higher = more cells survive
Trametinib + Pemetrexed = compound: CC(=O)Nc1cccc(-n2c(=O)n(C3CC3)c(=O)c3c(Nc4ccc(I)cc4F)n(C)c(=O)c(C)c32)c1 [Trametinib] + Nc1nc2[nH]cc(CCc3ccc(C(=O)N[C@@H](CCC(=O)O)C(=O)O)cc3)c2c(=O)[nH]1 [Pemetrexed] (partner 0.2 µM)
Procedure, shortened: (§1)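 Relative viability divides the nuclei count in treated wells by that in vehicle wells. Lung cancer cell lines were seeded in 1536-well plates, dosed by pin tool the next day, and fixed and stained after 5 days in one step with final 0.05% Triton X-100, 1% formaldehyde and 1 ug/ml Hoechst. Dosing was a single drug or a fixed anchor-drug dose plus five library-drug doses (not always all listed) in √10 steps, and values are medians of duplicate plates imaged at 4×.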

[1] = compound: CN1C=C(C2=CC=CC=C21)/C=C\3/C4=C(C=CC=N4)NC3=O + CC(=O)c1c(C)c2cnc(Nc3ccc(N4CCNCC4)cn3)nc2n(C2CCCC2)c1=O [Palbociclib] (partner 0.5 µM)
Procedure, shortened: as §1

[2] = compound: CN1C=C(C2=CC=CC=C21)/C=C\3/C4=C(C=CC=N4)NC3=O + CC(C)C[C@H](NC(=O)[C@H](Cc1ccccc1)NC(=O)c1cnccn1)B(O)O [Bortezomib] (partner 0.002 µM)
Procedure, shortened: as §1

[3] = compound: CN1C=C(C2=CC=CC=C21)/C=C\3/C4=C(C=CC=N4)NC3=O + CS(=O)(=O)N1CCN(Cc2cc3nc(-c4cccc5[nH]ncc45)nc(N4CCOCC4)c3s2)CC1 [Pictilisib] (partner 1 µM)
Procedure, shortened: as §1

Cell Line	relative viability (Trametinib + Pemetrexed; first compound 0.0025 µM)	relative viability (Trametinib + Pemetrexed; first compound 0.007906 µM)	relative viability (Trametinib + Pemetrexed; first compound 0.025 µM)	relative viability (Trametinib + Pemetrexed; first compound 0.07906 µM)	relative viability (Trametinib + Pemetrexed; first compound 0.25 µM)	relative viability ([1]; first compound 0.02 µM)	relative viability ([1]; first compound 0.06325 µM)	relative viability ([1]; first compound 0.2 µM)	relative viability ([1]; first compound 0.6325 µM)	relative viability ([1]; first compound 2 µM)	relative viability ([2]; first compound 0.02 µM)	relative viability ([2]; first compound 0.06325 µM)	relative viability ([2]; first compound 0.2 µM)	relative viability ([2]; first compound 0.6325 µM)	relative viability ([2]; first compound 2 µM)	relative viability ([3]; first compound 0.02 µM)	relative viability ([3]; first compound 0.06325 µM)	relative viability ([3]; first compound 0.2 µM)	relative viability ([3]; first compound 0.6325 µM)	relative viability ([3]; first compound 2 µM)
HCC-78	0.843	0.888	0.893	0.934	0.924	0.356	0.426	0.364	0.48	0.437	0.41	0.499	0.519	0.432	0.469	0.199	0.183	0.206	0.178	0.171
HCC-366	0.24	0.213	0.236	0.188	0.169	0.239	0.281	0.338	0.397	0.304	0.892	0.985	1.08	1.16	1.08	0.114	0.121	0.118	0.113	0.104
HCC-827	0.271	0.271	0.263	0.214	0.235	0.444	0.462		0.475	0.5	0.898	1.02		1.03	1.03	1.07	0.996		0.772	1
HOP-62	0.407	0.31	0.345	0.308	0.183	0.438	0.415		0.449	0.483	1.05	0.746	0.285	0.535	0.529	0.729	1.05	0.475	0.627	0.937
IA-LM											1	0.873	0.554	0.768	0.696	0.273	0.264		0.347	0.363
LC-2-ad	0.271	0.259	0.294	0.274	0.282	0.527	0.468	0.506	0.462	0.47	1	0.942	0.964	0.971	0.965	0.356	0.475	0.434	0.446	0.401
LCLC-97TM1	0.188	0.238	0.181	0.176	0.152		0.156	0.201	0.203	0.261		0.444		0.521	0.517	0.159			0.216	0.131
LK-2	0.226	0.305	0.213	0.184	0.102	0.232	0.421	0.447	0.576	0.678							0.364	0.458	0.453	0.557
NCI-H358	0.156	0.143	0.164	0.16	0.152	0.147	0.152	0.123	0.13	0.138						0.33	0.319	0.301	0.338	0.387
NCI-H522	1.04	1.07	0.75	0.742	0.752	1.04	1.01	1.08	0.874	1.06										
NCI-H596	0.475	0.445	0.477	0.546	0.426						0.838	1.17	1.03	1.07	1.02	0.333	0.322	0.421	0.392	0.396
NCI-H727						0.63	0.575	0.653	0.652	0.623	0.923	0.564	0.646	1.24	1.32	0.363	0.304	0.208	0.299	0.484
NCI-H1299											1.05	0.957	0.965	1.06	0.988	0.567	0.811	0.8	0.824	0.894
NCI-H1395	0.952	0.837	0.708	0.609	0.466	0.567	0.534	0.581	0.618	0.581						0.605	0.581		0.602	0.577
NCI-H1563	0.787	0.755	0.574	0.669	0.657						1.05	0.827	0.753	0.838	0.852	0.587	0.618	0.641	0.747	0.682
NCI-H1648	0.676	0.69	0.883	0.752	0.559	0.308	0.305	0.233	0.285	0.28										
NCI-H1703											0.407	0.401	0.258	0.41	0.356	0.232	0.245	0.257	0.283	0.23
NCI-H1793	0.617	0.481	0.315	0.365	0.338	0.322	0.39	0.285	0.275	0.296						0.258	0.314	0.257	0.282	0.304
NCI-H1944	0.514	0.429	0.39	0.318	0.29	0.28	0.351		0.267	0.314						0.323	0.326		0.294	0.314
NCI-H2170	0.281	0.267		0.271	0.237	0.293	0.408	0.349	0.392	0.434							0.312	0.235	0.317	0.242
NCI-H2342	0.688	0.727	0.459	0.689	0.685	0.552	0.557	0.519	0.537	0.485										
SK-MES-1	0.916	0.736	0.664	0.428	0.407	0.243	0.325	0.316	0.321	0.264						0.338	0.308	0.346	0.342	0.302
SW 900	0.439	0.471	0.487	0.459	0.224	0.428			0.542	0.563										

— the supplement of paper PMC10307832
